Assay results taken from US20250282796A1, “PENEM ANTIBACTERIALS AGAINST MYCOBACTERIAL PATHOGENS AND D,D- AND L,D TRANSPEPTIDASES” (The Johns Hopkins University, priority 2022, published 2025).
Converted amounts (≈) assume the structure as drawn. “Also recorded” adds a separate entry of the source. Read-outs that look alike come from different tables or passages of the source.

Experiments:
[1] = system: Mab ATCC 19977; experiment: MIC broth microdilution assay against Mab ATCC 19977; assay type: cell-based, Mycobacteroides abscessus; details: for MIC: Mycobacteroides abscessus, read-out: MIC Mab ATCC 19977
[2] = system: Mtb H37Rv; experiment: MIC broth microdilution assay against Mtb H37Rv (with and without clavulanate); assay type: cell-based, Mycobacterium tuberculosis; details: for increase of MIC relative to T405: Mtb H37Rv without clavulanate; for MIC: Mycobacterium tuberculosis, H37RV, 336 h, read-out: MIC Mtb H37Rv
[3] = target: T1, DacB2 (Mycobacterium tuberculosis, UniProt I6Y204); experiment: DacB2 adduct formation and stability comparison by intact-protein UPLC-HRMS; assay type: binding; details: for DacB2 adduct formation: 20 μM drug, 1 h
T1 construct: made in house
T1 sequence (I6Y204 28-291): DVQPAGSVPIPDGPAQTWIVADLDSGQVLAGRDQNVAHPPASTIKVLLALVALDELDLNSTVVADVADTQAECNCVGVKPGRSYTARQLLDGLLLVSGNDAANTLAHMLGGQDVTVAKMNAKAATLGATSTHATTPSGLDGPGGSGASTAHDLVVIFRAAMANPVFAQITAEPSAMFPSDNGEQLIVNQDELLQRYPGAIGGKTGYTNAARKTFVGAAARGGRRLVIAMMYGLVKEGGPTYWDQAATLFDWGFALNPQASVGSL

[4] = target: T2, LdtMt2 (Mycobacterium tuberculosis, UniProt I6Y9J2); experiment: LdtMt2 adduct formation by intact-protein UPLC-HRMS; assay type: binding; details: penem 20 μM, 1 h, 25 mM HEPES pH 7.0, 20° C.
T2 construct: made in house
T2 sequence (I6Y9J2 56-408): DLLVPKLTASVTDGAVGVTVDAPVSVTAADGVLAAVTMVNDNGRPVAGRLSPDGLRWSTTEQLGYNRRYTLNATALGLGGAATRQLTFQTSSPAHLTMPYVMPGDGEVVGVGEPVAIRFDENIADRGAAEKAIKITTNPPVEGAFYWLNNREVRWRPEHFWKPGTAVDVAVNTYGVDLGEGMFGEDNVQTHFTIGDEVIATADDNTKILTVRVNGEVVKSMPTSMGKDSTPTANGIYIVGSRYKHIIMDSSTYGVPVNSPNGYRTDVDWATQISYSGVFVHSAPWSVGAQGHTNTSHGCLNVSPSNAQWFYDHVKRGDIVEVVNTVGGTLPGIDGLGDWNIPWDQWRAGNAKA

[5] = ATCC19977, Middlebrook 7H9, 30° C., 72 h
[6] = without clavulanate, Middlebrook 7H9, 37° C., 14 d
[7] = 24 h after removal of free drug, 20° C.

SMILES | MIC [1, 5] | MIC [2, 6] | MIC Mtb H37Rv with Clavulanate (5 μg/ml) ([2]; Middlebrook 7H9, 37° C., 14 d) | also measured
C[C@@H](O)[C@H]1C(=O)N2C(C(=O)O)=C(SC3CN(c4nc5ccccc5n4C)C3)S[C@H]12 [Compound T418, (5R,6S)-6-((R)-1-hydroxyethyl)-3-((1-(1-methyl-1H-benzo[d]imidazol-2-yl)azetidin-3-yl)thio)-7-oxo-4-thia-1-azabicyclo[3.2.0]hept-2-ene-2-carboxylic acid] | 64 µg/mL (≈ 148 µM) | 2 µg/mL | 0.5 µg/mL | increase of MIC relative to T405 [2]: four-fold
C[C@@H](O)[C@H]1C(=O)N2C(C(=O)O)=C(SC3CN(C4=NCCCS4)C3)S[C@H]12 [Compound T420, (5R,6S)-3-((1-(5,6-dihydro-4H-1,3-thiazin-2-yl)azetidin-3-yl)thio)-6-((R)-1-hydroxyethyl)-7-oxo-4-thia-1-azabicyclo[3.2.0]hept-2-ene-2-carboxylic acid] | 16 µg/mL (≈ 39.8 µM) | 2 µg/mL | 0.5 µg/mL | increase of MIC relative to T405 [2]: two dilutions
CCN1CC(SC2=C(C(=O)O)N3C(=O)[C@H]([C@@H](C)O)[C@H]3S2)C1 [Compound T421, (5R,6S)-3-((1-ethylazetidin-3-yl)thio)-6-((R)-1-hydroxyethyl)-7-oxo-4-thia-1-azabicyclo[3.2.0]hept-2-ene-2-carboxylic acid] | 4 µg/mL (≈ 12.1 µM) | 1 µg/mL | 0.5 µg/mL | –
C[C@@H](O)[C@H]1C(=O)N2C(C(=O)O)=C(SC3CNC3)S[C@H]12 [Compound T422, (5R,6S)-3-(azctidin-3-ylthio)-6-((R)-1-hydroxyethyl)-7-oxo-4-thia-1-azabicyclo[3.2.0]hept-2-ene-2-carboxylic acid] | – | – | 0.5 µg/mL | weaker activity (MIC) relative to T405 ([1]; Mab ATCC 19977): 2 fold; MIC ([1]; ATCC19977, 72 h): 4 µg/mL (≈ 13.2 µM); MIC [2]: 0.5 µg/mL
C[C@@H](O)[C@H]1C(=O)N2C(C(=O)O)=C(SC3CN(c4nc5ccccc5s4)C3)S[C@H]12 [Compound T423, (5R,6S)-3-((1-(benzo[d]thiazol-2-yl)azetidin-3-yl)thio)-6-((R)-1-hydroxyethyl)-7-oxo-4-thia-1-azabicyclo[3.2.0]hept-2-ene-2-carboxylic acid] | 64 µg/mL (≈ 147 µM) | 8 µg/mL | 2 µg/mL | increase of MIC relative to T405 [2]: 16 fold
C[C@@H](O)[C@H]1C(=O)N2C(C(=O)O)=C(S[C@@H]3CCNC3)S[C@H]12 [Compound T425, (5R,6S)-6-((R)-1-hydroxyethyl)-7-oxo-3-(((R)-pyrrolidin-3-yl)thio)-4-thia-1-azabicyclo[3.2.0]hept-2-ene-2-carboxylic acid] | 2 µg/mL (≈ 6.32 µM) | 0.5 µg/mL | 0.25 µg/mL | MIC against Mab ([1]; Mab ATCC 19977): 1 µg/mL (≈ 3.16 µM)
C[C@@H](O)[C@H]1C(=O)N2C(C(=O)O)=C(S[C@H]3CCNC3)S[C@H]12 [Compound T426, (5R,6S)-6-((R)-1-hydroxyethyl)-7-oxo-3-(((S)-pyrrolidin-3-yl)thio)-4-thia-1-azabicyclo[3.2.0]hept-2-ene-2-carboxylic acid] | 2 µg/mL (≈ 6.32 µM) | 0.5 µg/mL | 0.25 µg/mL | DacB2 adduct formation ([3]; 20° C., pH 7.0): formed intact adducts; DacB2 adduct stability (in words) [3, 7]: remained completely bound; also recorded: fully bound; also recorded: stable for at least 24 h after drug removal; covalent LdtMt2 adduct formed [4]: formed a +86 Da LdtMt2 adduct; also recorded: fragmentation to a M+86 Da 3-hydroxybutyryl group; MIC against Mab ([1]; Mab ATCC 19977): 1 µg/mL (≈ 3.16 µM)
C[C@@H](O)[C@H]1C(=O)N2C(C(=O)O)=C(SC3CCNCC3)S[C@H]12 [Compound T427, (5R,6S)-6-((R)-1-hydroxyethyl)-7-oxo-3-(piperidin-4-ylthio)-4-thia-1-azabicyclo[3.2.0]hept-2-ene-2-carboxylic acid] | – | – | 0.5 µg/mL | MIC ([1]; ATCC19977, 72 h): 4 µg/mL (≈ 12.1 µM); increase of MIC relative to T405 [2]: two-fold; MIC [2]: 1 µg/mL
C[C@@H](O)[C@H]1C(=O)N2C(C(=O)O)=C(SCC3CNC3)S[C@H]12 [Compound T428, (5R,6S)-3-((azetidin-3-ylmethyl)thio)-6-((R)-1-hydroxyethyl)-7-oxo-4-thia-1-azabicyclo[3.2.0]hept-2-ene-2-carboxylic acid] | 8 µg/mL (≈ 25.3 µM) | 0.5 µg/mL | 0.25 µg/mL | DacB2 adduct formation ([3]; 20° C., pH 7.0): formed intact adducts; DacB2 adduct stability (in words) [3, 7]: partially hydrolyzed; inhibitor retained on DacB2 (percent bound) ([3]; 24 h after removal of free drug, 20° C., pH 7.0): 86%; loss of drug from DacB2 adduct ([3]; 24 h after washing away free drug): 14%; covalent LdtMt2 adduct formed [4]: formed a +86 Da LdtMt2 adduct; also recorded: fragmentation to a M+86 Da 3-hydroxybutyryl group
C[C@@H](O)[C@H]1C(=O)N2C(C(=O)O)=C(SCC3CCNCC3)S[C@H]12 [Compound T429, (5R,6S)-6-((R)-1-hydroxyethyl)-7-oxo-3-((piperidin-4-ylmethyl)thio)-4-thia-1-azabicyclo[3.2.0]hept-2-ene-2-carboxylic acid] | 4 µg/mL (≈ 11.6 µM) | 0.5 µg/mL | 0.25 µg/mL | –
C[C@@H](O)[C@H]1C(=O)N2C(C(=O)O)=C(SC3CN(C4CCOCC4)C3)S[C@H]12 [Compound T430, (5R,6S)-6-((R)-1-hydroxyethyl)-7-oxo-3-((1-(tetrahydro-2H-pyran-4-yl)azetidin-3-yl)thio)-4-thia-1-azabicyclo[3.2.0]hept-2-ene-2-carboxylic acid] | 4 µg/mL (≈ 10.3 µM) | 4 µg/mL | – | –
CCN1CC[C@@H](SC2=C(C(=O)O)N3C(=O)[C@H]([C@@H](C)O)[C@H]3S2)C1 [Compound T431, (5R,6S)-3-(((R)-1-ethylpyrrolidin-3-yl)thio)-6-((R)-1-hydroxyethyl)-7-oxo-4-thia-1-azabicyclo[3.2.0]hept-2-ene-2-carboxylic acid] | 4 µg/mL (≈ 11.6 µM) | 4 µg/mL | – | –
C[C@@H](O)[C@H]1C(=O)N2C(C(=O)O)=C(S[C@@H]3CCN(C4CCOCC4)C3)S[C@H]12 [Compound T432, (5R,6S)-6-((R)-1-hydroxyethyl)-7-oxo-3-(((R)-1-(tetrahydro-2H-pyran-4-yl)pyrrolidin-3-yl)thio)-4-thia-1-azabicyclo[3.2.0]hept-2-ene-2-carboxylic acid] | 4 µg/mL (≈ 9.99 µM) | 4 µg/mL | – | –
C[C@@H](O)[C@H]1C(=O)N2C(C(=O)O)=C(SCCN=CN)C[C@H]12 [Imipenem, reference compound] | 8 µg/mL (≈ 26.7 µM) | – | – | MIC Mab ATCC 19977 ([1]; Middlebrook 7H9, 30° C., 72 h): 8 µg/mL (≈ 26.7 µM)
C[C@@H](O)[C@H]1C(=O)N2C(C(=O)O)=C(S[C@@H]3CN[C@H](C(=O)N(C)C)C3)[C@H](C)[C@H]12 [Meropenem, reference compound] | – | 8 µg/mL | 0.5 µg/mL | DacB2 adduct formation ([3]; 20° C., pH 7.0): fully reacts with DacB2; DacB2 adduct stability (in words) [3, 7]: stable after removal of drug for 24 h; DacB2 adduct stability (in words) ([3]; 24 h after removal of free drug, 20° C., listed as meropenem): remained completely bound; also recorded: fully bound; MIC Mtb H37Rv [2, 6]: 8 µg/mL
